One experiment deals with Adenosine receptor A2a (Homo sapiens, UniProt P29274). In words: biochemical. It is filed as cell-based, HEK293.
In another experiment the target is T1, Adenosine receptor A2b (Homo sapiens, UniProt P29275).
T1 sequence (P29275 whole entry): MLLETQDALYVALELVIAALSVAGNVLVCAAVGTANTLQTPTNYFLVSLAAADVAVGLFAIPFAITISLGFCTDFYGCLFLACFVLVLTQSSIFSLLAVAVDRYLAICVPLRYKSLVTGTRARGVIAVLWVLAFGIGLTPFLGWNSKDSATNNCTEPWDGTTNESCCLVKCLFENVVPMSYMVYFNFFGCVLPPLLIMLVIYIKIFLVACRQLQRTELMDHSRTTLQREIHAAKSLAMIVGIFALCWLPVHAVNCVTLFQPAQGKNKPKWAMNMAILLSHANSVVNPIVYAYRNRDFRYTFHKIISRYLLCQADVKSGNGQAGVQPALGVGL
In words: biochemical. The format is cell-based, HEK293.

The target of the next experiment is T2, Adenosine receptor A1 (Homo sapiens, UniProt P30542).
T2 sequence (P30542 whole entry): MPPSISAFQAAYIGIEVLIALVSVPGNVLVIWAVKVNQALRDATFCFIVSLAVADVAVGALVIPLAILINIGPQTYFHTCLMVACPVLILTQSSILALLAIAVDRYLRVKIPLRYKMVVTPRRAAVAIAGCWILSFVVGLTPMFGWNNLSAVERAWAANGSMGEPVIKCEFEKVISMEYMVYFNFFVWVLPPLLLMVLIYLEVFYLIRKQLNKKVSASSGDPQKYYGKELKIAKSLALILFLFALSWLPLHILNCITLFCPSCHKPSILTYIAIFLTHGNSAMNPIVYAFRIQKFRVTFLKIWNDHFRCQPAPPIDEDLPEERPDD
As to the kind of experiment: biochemical. It is filed as cell-based, CHO.

The next experiment relates to Monkey. It is filed as functional, Cercopithecidae, Eye.

pIC50: −log10 of the molar value. Where “and” joins values, the source holds several entries; their conditions need not be identical. Identical values can stand only once.

The pIC50 is −log10 of the IC50, conventionally taken in molar units.

`CCCCc1nc2ccccc2c2nc(-c3ccc(-c4ccccc4)cc3)nn12`: the pIC50 against Adenosine receptor A2a was […].

Chain of Adenosine receptor A2a (P29274 whole entry): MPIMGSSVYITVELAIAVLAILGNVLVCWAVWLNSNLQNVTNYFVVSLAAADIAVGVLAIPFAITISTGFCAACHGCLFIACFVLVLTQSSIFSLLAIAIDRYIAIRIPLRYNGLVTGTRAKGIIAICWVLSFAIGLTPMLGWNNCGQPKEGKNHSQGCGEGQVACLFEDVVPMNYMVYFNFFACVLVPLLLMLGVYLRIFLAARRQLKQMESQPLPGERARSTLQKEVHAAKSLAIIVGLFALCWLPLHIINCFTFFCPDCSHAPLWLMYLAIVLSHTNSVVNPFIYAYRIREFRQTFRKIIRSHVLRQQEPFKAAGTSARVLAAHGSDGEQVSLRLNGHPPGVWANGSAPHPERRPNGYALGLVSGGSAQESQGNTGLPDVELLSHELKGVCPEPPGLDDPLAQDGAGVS
Description for Adenosine receptor A1: Displacement of specific [3H]DPCPX binding at human adenosine A1 receptor expressed in CHO cells.
Description for Adenosine receptor A2a: Displacement of specific [3H]-CGS- 21680 binding at human adenosine A2A receptor expressed in HEK293 cells
Description for Adenosine receptor A2b: Displacement of specific [3H]DPCPX binding at human adenosine A2B receptor expressed in HEK293 cells.
Description for Monkey: Effect on IOP (intraocular pressure) was determined in monkey; compared to control that is 20.7 mmHg

As for `CCCCc1nc2nc[nH]c2c2nc(-c3ccc(-c4ccccc4)cc3)nn12`, the negative-log IC50 (pIC50) at Adenosine receptor A2b, on Adenosine receptor A1 and at Adenosine receptor A2a was less than 5.00 each time.

Consider `CCCCc1nc2[nH]cnc2c2nc(-c3ccc(C(F)(F)F)cc3)nn12`, for which the pIC50 on Adenosine receptor A2b and on Adenosine receptor A1 was less than 5.00 throughout. Moreover, the Effect with Monkey was 19.6 mmHg and 19.1 mmHg.

Molecule `CCCCc1nc2ccc(Cl)cc2c2nc(-c3ccc(Br)cc3)nn12` had a pIC50 against Adenosine receptor A2a of […].

Take `CCCCc1nc2n[nH]cc2c2nc(-c3cccc(Cl)c3)nn12`: the pIC50 at Adenosine receptor A2a was 6.12.

For `CCCCc1nc2[nH]ncc2c2nc(-c3ccc(CCC)cc3)nn12`, the pIC50 at Adenosine receptor A2a is […].

Turning to `COCCc1nc2nc[nH]c2c2nc(-c3ccc(-c4ccccc4)cc3)nn12`, the pIC50 on Adenosine receptor A2b, against Adenosine receptor A1 and against Adenosine receptor A2a was less than 5.00 throughout.

Turning to `O=C(O)CCc1nc2nc[nH]c2c2nc(-c3ccc(-c4ccccc4)cc3)nn12`, on Adenosine receptor A2a, the pIC50 is less than 5.00.

As to `O=C(O)CCCc1nc2nc[nH]c2c2nc(-c3ccc(Cl)cc3)nn12`, the pIC50 on Adenosine receptor A2b, against Adenosine receptor A1 and on Adenosine receptor A2a was less than 5.00 throughout.

Molecule `CCCCc1nc2n[nH]cc2c2nc(-c3ccc(Br)cc3)nn12` had a pIC50 at Adenosine receptor A2a of […].

`CCCCc1nc2[nH]ncc2c2nc(-c3ccc(C(C)(C)C)cc3)nn12` gave a pIC50 at Adenosine receptor A2a of […].

For `CCCCc1nc2n[nH]cc2c2nc(-c3ccc(OCC)cc3)nn12`, the pIC50 against Adenosine receptor A2a was […].

Molecule `CCCCc1nc2cccc(Cl)c2c2nc(-c3ccccc3)nn12` gave a pIC50 against Adenosine receptor A2a of less than 5.00.

At Adenosine receptor A2a, `CCCCc1nc2n[nH]cc2c2nc(-c3ccccc3Cl)nn12` had a pIC50 of 6.89.

(Values after ChEMBL document CHEMBL1146808, “Structure-activity relationships of adenosine A3 receptor ligands: new potential therapy for the treatment of glaucoma” (Bioorg Med Chem Lett, 2004).)
